Source: ChEMBL document CHEMBL4665751, “Discovery of Clinical Candidate (5-(3-(4-Chlorophenoxy)prop-1-yn-1-yl)-3-hydroxypicolinoyl)glycine, an Orally Bioavailable Prolyl Hydroxylase Inhibitor for the Treatment of Anemia” (J Med Chem, 2020)
The source made the active and inactive calls. The calls are words filed in the database; no cut-off is given here.

Experiments:
[1] = Nephrotoxicity in Sprague-Dawley rat assessed as change in urea level in blood at 15 to 200 mg/kg, po administered every alternate days for 2 weeks measured on day 14; format: toxicity, organism-based; details: in vivo, 336 h, dose 15-200 mg/kg, time 14 day
Egl nine homolog 1 [2] = target: T1, Egl nine homolog 1 (Homo sapiens, UniProt Q9GZT9); test: Inhibition of PHD2 in human MCF7 cells assessed as upregulation of HIFalpha expression at 25 uM incubated for 24 hrs by firefly/renilla luciferase reporter gene assay relative to control; format: cell-based
Target sequence in this assay (Q9GZT9 2-426 limits assumed): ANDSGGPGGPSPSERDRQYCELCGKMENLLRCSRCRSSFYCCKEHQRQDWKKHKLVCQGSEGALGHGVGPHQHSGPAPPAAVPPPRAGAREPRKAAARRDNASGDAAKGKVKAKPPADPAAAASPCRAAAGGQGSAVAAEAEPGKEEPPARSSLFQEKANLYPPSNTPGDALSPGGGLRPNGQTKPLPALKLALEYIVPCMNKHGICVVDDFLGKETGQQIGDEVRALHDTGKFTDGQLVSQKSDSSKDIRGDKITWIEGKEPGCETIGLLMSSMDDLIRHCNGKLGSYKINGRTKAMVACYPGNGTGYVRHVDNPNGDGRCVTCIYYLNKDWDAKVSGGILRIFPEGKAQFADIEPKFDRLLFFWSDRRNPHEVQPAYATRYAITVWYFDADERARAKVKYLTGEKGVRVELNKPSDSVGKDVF

Mus musculus [3] = test: Antianemic activity in cisplatin-induced C57BL/6 mouse anemia model assessed as increase in haemoglobin level administered orally every other day for 1 month; format: functional, organism-based; details: dose mg/kg 10-25, time 1.0 months
[4] = Acute toxicity in Sprague-Dawley rat assessed as change in body weight at 15 to 200 mg/kg, po administered every alternate days for 14 days; format: organism-based; details: in vivo, 336 h, dose 15-200 mg/kg, time 14 day
Homo sapiens [5] = species on record: Homo sapiens; test: Selectivity index, ratio of IC50 for KDM4A (unknown origin) in presence of peptide substrate incubated for 30 mins by alpha screen assay to IC50 for PHD2 (unknown origin) by O-phenyl enediamine(OPD) based fluorescence assay
[6] = Acute toxicity in female Sprague-Dawley rat assessed as change in ratio of ovary to body weight at 15 to 200 mg/kg, po administered every alternate days for 2 weeks measured on day 14; format: organism-based; details: in vivo, 336 h, dose 15-200 mg/kg, time 14 day
[7] = Half-life in monkey liver microsome at 1 uM preincubated for 5 mins followed by NADPH addition measured up to 120 mins by LC-MS/MS analysis; format: ADME, Macaca mulatta; details: rhesus monkey, liver microsomes, time <=125 min
[8] = Clearance in Sprague-Dawley rat at 1 mg/kg, iv by LC-MS/MS analysis; format: ADME, organism-based; details: in vivo
[9] = AUC (0 to t) in Beagle dog at 0.5 mg/kg, iv by LC-MS/MS analysis; format: ADME, organism-based, Canis lupus familiaris; design: dose 0.5 mg/kg; details: in vivo
[10] = Acute toxicity in male Sprague-Dawley rat assessed as change in ratio of epididymis to body weight at 15 to 200 mg/kg, po administered every alternate days for 2 weeks measured on day 14; format: organism-based; details: in vivo, 336 h, dose 15-200 mg/kg, time 14 day
[11] = AUC (0 to infinity) in Beagle dog at 2 mg/kg, ig by LC-MS/MS analysis; format: ADME, organism-based, Canis lupus familiaris; design: route […], time infinity, dose 2 mg/kg; details: in vivo, po
[12] = Hepatotoxicity in male Sprague-Dawley rat assessed as change in globulin level at 15 to 200 mg/kg, po administered every alternate days for 2 weeks measured on day 14; format: toxicity, organism-based; details: in vivo, 336 h, dose 15-200 mg/kg, time 14 day
[13] = MRT (0 to infinity) in Sprague-Dawley rat at 2 mg/kg, ig by LC-MS/MS analysis; format: ADME, organism-based; details: in vivo, po
[14] = Genotoxicity in Salmonella typhimurium TA100 at 62.5 to 1000 ug incubated for 48 to 50 hrs in absence of S9 fraction by Ames test; format: toxicity, Salmonella enterica subsp. enterica serovar Typhimurium; details: in vivo; dose 62.5-1000 µg, time 48-50 hrs
Mus musculus [15] = test: In vivo inhibition of PHD2 in C57BL/6 mouse assessed as upregulation of EPO plasma level by measuring EPO level at 15 mg/kg, po measured after 4 hrs by ELISA; format: functional, organism-based
[16] = Half-life in human liver microsome at 1 uM preincubated for 5 mins followed by NADPH addition measured up to 120 mins by LC-MS/MS analysis; format: ADME; details: liver microsomes, time <=125 min
[17] = Hepatotoxicity in male Sprague-Dawley rat assessed as change in albumin level at 15 to 200 mg/kg, po administered every alternate days for 2 weeks measured on day 14; format: toxicity, organism-based; details: in vivo, 336 h, dose 15-200 mg/kg, time 14 day
MCF7 = test: Cytotoxicity against human MCF7 cells assessed as reduction in cell viability at 10 to 100 uM incubated for 72 hrs by MTT assay; format: cell-based; details: mcf7, 72 h, dose 10-100 µM
[18] = Acute toxicity in Sprague-Dawley rat assessed as change in ratio of adrenal gland to body weight at 15 to 200 mg/kg, po administered every alternate days for 2 weeks measured on day 14; format: organism-based; details: in vivo, 336 h, dose 15-200 mg/kg, time 14 day
[19] = Genotoxicity in Salmonella typhimurium TA98 at 62.5 to 1000 ug incubated for 48 to 50 hrs in presence of S9 fraction by Ames test; format: toxicity, subcellular, Salmonella enterica subsp. enterica serovar Typhimurium; details: dose 62.5-1000 µg, time 48-50 hrs
[20] = Clearance in Sprague-Dawley rat at 2 mg/kg, ig by LC-MS/MS analysis; format: ADME, organism-based; details: in vivo, po
Egl nine homolog 1 [21] = target: T1, Egl nine homolog 1; test: Inhibition of FITC-HIF1alpha (556 to 574 residues) binding to PHD2 (181 to 426 residues) (unknown origin) by fluorescence polarization assay
Target sequence in this assay (Q9GZT9 whole entry): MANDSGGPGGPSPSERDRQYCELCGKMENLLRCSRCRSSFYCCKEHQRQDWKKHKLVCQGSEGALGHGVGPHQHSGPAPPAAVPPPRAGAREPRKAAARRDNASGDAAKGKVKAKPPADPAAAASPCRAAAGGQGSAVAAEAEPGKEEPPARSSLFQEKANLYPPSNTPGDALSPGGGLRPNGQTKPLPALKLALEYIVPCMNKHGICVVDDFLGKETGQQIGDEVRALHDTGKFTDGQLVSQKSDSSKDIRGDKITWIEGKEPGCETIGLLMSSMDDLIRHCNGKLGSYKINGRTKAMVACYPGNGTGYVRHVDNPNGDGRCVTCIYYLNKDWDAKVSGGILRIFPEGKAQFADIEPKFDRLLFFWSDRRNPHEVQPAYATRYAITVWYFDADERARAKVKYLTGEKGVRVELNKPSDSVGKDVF

[22] = Tmax in Sprague-Dawley rat at 2 mg/kg, ig by LC-MS/MS analysis; format: ADME, organism-based; details: in vivo, po
[23] = Half-life in rat liver microsome at 1 uM preincubated for 5 mins followed by NADPH addition measured up to 120 mins by LC-MS/MS analysis; format: ADME; details: liver microsomes, time <=125 min
Egl nine homolog 1 [24] = target: T1, Egl nine homolog 1; test: Inhibition of PHD2 in human MCF7 cells assessed as upregulation of HIFalpha expression at 50 uM incubated for 24 hrs by firefly/renilla luciferase reporter gene assay relative to control; format: cell-based
Target sequence in this assay (Q9GZT9 2-426 limits assumed): as the sequence (Q9GZT9 2-426 limits assumed) above

[25] = Nephrotoxicity in Sprague-Dawley rat assessed as change in creatinine level in blood at 15 to 200 mg/kg, po administered every alternate days for 2 weeks measured on day 14; format: toxicity, organism-based; details: in vivo, 336 h, dose 15-200 mg/kg, time 14 day
Homo sapiens [26] = species on record: Homo sapiens; test: Selectivity index, ratio of IC50 for human ERG expressed in HEK293 cells by PatchLiner assay to IC50 for PHD2 (unknown origin) by O-phenyl enediamine(OPD) based fluorescence assay; format: cell-based

O=C(O)CNC(=O)c1ncc(C#CCOc2ccc(Cl)cc2)cc1O [DDO-3055]
Activity [1]: Non-Toxic | fold change (FC) (Egl nine homolog 1 [2]): 4 | Activity (Mus musculus [3]): Active | Activity [4]: Non-Toxic | Ratio IC50 (Homo sapiens [5]): 1560 | Activity [6]: Non-Toxic | half-life at 1 µM [7]: > 99 min | clearance [8]: 3.44 mL/min/kg | AUC(0-t) [9]: 611 ng·h/mL | Activity [10]: Non-Toxic | AUC(0-inf) [11]: 1370 ng·h/mL | Activity [12]: Non-Toxic | MRT inf [13]: 9.43 h | Activity [14]: Non-Toxic | inhibition (Mus musculus [15]): Active | half-life at 1 µM [16]: > 139 min | Activity [17]: Non-Toxic | Activity (MCF7): Non-Toxic | Activity [18]: Non-Toxic | Activity [19]: Non-Toxic | CL/F [20]: 7.3 mL/min/kg | IC50 (Egl nine homolog 1 [21]): 64.2 nM | Tmax [22]: 37.8 min | half-life at 1 µM [23]: > 67 min | fold change (FC) (Egl nine homolog 1 [24]): 7 | Activity [25]: Non-Toxic | Ratio IC50 (Homo sapiens [26]): > 467
